In one data set the target is T1, HCV NS5B genotype 1b (Hepatitis C virus genotype 1b, UniProt Q9WMX2).
T1 construct: The protein was expressed with a 21 amino acid C-terminal deletion to remove transmembrane domain; expressed in transfected cells; host or cells: Huh-7
Put plainly: 3D-SCREEN assay (NS5B 3D-Screen platform, luciferase reporter gene). It counts as cell-based. The settings on record: EC50_3DS_NS5B. The text has this: cDNA encoding HCV NS5B genotype 1b, was cloned in frame with Gal4-DNA Binding Domain. The protein was expressed with a 21 amino acid C-terminal deletion to remove transmembrane domain. Expression of NS5BΔ21/Gal4 DBD fusion protein was under control of SV40 early promoter. 3D-Sensor peptide was cloned in frame with VP16 activation domain. Expression of 3D-Sensor/VP16 AD fusion protein was under control of CMV promoter. Expression of the firefly luciferase reporter gene was inducible by the [Target protein/conformation sensitive peptide/VP16AD] complex.
It is a single-target, cell based assay. Briefly, expression of a reporter gene depends on the interaction of a short peptide, thereafter named 3D-Sensor, and native conformation of the target protein. Whenever the conformation of the target protein is modified, interaction between 3D-sensor and target protein is disrupted and reporter gene is not expressed anymore. Conformation modifiers are identified by loss of expression of reporter gene. NS5B 3D-Screen platform was generated in Huh-7 cell lines by transient transfection of three expression vectors encoding respectively
(i) HCV NS5BΔ21/Gal4-DBD fusion protein
(ii) the 3D-sensor peptide I4/VP16 fusion protein
(iii) the firefly luciferase reporter gene
Huh-7 cells were dissociated the day before transfection and seeded in T175 flasks at a density of 10^7 cells in 30 ml culture medium. Equimolar ratios of vectors were transfected in cell according to optimized jetPEI transfection protocol (PolyPlus Transfection, Illkirch, France) and 10 μg total DNA/10^6 cells. Transfection was performed for 2 hours at 37° C. and 5% CO2 in a humidified atmosphere. After two hours cells were dissociated and seeded in 96 wells plates at a density of 25,000 cells per well and 90 μl culture medium. 10 μl of compounds to be tested were added 2 hours after seeding. Final concentration of DMSO was 1%. Cells were incubated in the presence of compounds for 24 hours after which expression of firefly luciferase reporter gene was quantified. Briefly, culture medium was removed and cells were lysed by addition of 100 μl of lysis buffer containing 125 mM Tris Phosphate ph 7.8, 10 mM EDTA, 5 mM DTT, 50% glycerol and 5% Triton. Plates were vortexed 10 min at 1300 rpm. Cell lysat was transferred in OpaqueWhite Assay 96 well Flat Bottom plates. 100 μl of luciferin solution 1× were added to each well. Luciferin solution contained 40 mM Tris Phosphate ph 7.8, 0.2 mM EDTA, 67 mM DTT, 2.14 mM MgCl2, 5.4 mM MgSO4, 4.7×10^−4 M luciferin, 5.3×10^−4 M ATP and 2.7×10^−4 M Acetyl co enzyme A. Luminescence was immediately measured with Berthold Microlumat Plus LB 96V luminometer with an integration of 0.5 sec. Inhibition was calculated using the formula: % inhibition=(1−(read/average max))*100. Average max=signal in absence of compound

[1] abbreviates: Table 1, 3D-SCREEN assay results, Huh-7 cells, 24 hours with compound, firefly luciferase reporter.
[2] abbreviates: Table 2, titled Replicon assay results.

Each structure is given as a SMILES string. A value given as a limit tells only on which side of the number the result lay.

Consider `COC(=O)c1ccc(N2C(=O)C(O)=C(C(=O)c3ccc(C)cc3)C2c2ccc(C(C)(C)C)cc2)nc1` (stereo not drawn), for which the melting point lay in the range of 287 to 288 °C. On to `COc1ccc(C(=O)C2=C(O)C(=O)N(c3ccc(C)nn3)C2c2ccc(OC(F)(F)F)cc2)cn1` (stereo not drawn), for which the melting point lay in the range of 250 to 251 °C. `CCOc1ccc(C2C(C(=O)c3ccc(C(C)C)cc3)=C(O)C(=O)N2c2ccc(C)nn2)nc1` (stereo not drawn) displayed a melting point of 198 to 199 °C. Regarding `CC(=O)c1ccc(C2C(C(=O)c3ccc(C(C)C)cc3)=C(O)C(=O)N2c2ccc(C)nn2)cc1` (stereo not drawn), the melting point fell in the range of 259 to 266 °C. For the molecule `Cc1ccc(N2C(=O)C(O)=C(C(=O)c3ccc(C(C)C)cc3)C2c2ccc(F)cc2)nn1` (stereo not drawn), the melting point fell in the range of 273 to 278 °C. With `Cc1ccc(N2C(=O)C(O)=C(C(=O)c3ccc(C(C)C)cc3)C2c2ccc(O)cc2)nn1` (stereo not drawn), the melting point fell in the range of 222 to 224 °C. As to `Cc1ccc(N2C(=O)C(O)=C(C(=O)c3ccc(C(C)C)cc3)C2c2ccc(Cn3cnnn3)cc2)nn1` (stereo not drawn), the melting point is > 300 °C. Still for that read-out and setting: with `Cc1ccc(N2C(=O)C(O)=C(C(=O)c3ccc(C(C)C)cc3)C2c2ccc(Cn3cncn3)cc2)nn1` (stereo not drawn) the figure was 223 °C; with `Cc1ccc(N2C(=O)C(O)=C(C(=O)c3ccc(C(C)C)cc3)C2c2ccc(-n3cncn3)cc2)nn1` (stereo not drawn), 284 °C; with `Cc1ccc(N2C(=O)C(O)=C(C(=O)c3ccc(C(C)C)cc3)C2c2ccc(Cn3cccn3)cc2)nn1` (stereo not drawn), 263 °C. `Cc1ccc(N2C(=O)C(O)=C(C(=O)c3ccc(C(C)C)cc3)C2c2ccc(Cn3ccnn3)cc2)nn1` (stereo not drawn) came in with a melting point of 293 °C.

Molecule `Cc1ccc(N2C(=O)C(O)=C(C(=O)c3ccc(C(C)C)cc3)C2c2ccc(Cn3ncnn3)cc2)nn1` (stereo not drawn) gave a melting point of 271 °C. For the molecule `Cc1ccc(N2C(=O)C(O)=C(C(=O)c3ccc(OC(F)(F)F)cc3)C2c2ccc(Cn3ncnn3)cc2)nn1` (stereo not drawn), the melting point is 258 °C. In turn, `Cc1ccc(N2C(=O)C(O)=C(C(=O)c3ccc(OC(F)(F)F)cc3)C2c2ccc(Cn3ccnn3)cc2)nn1` (stereo not drawn) came in with a melting point of 275 °C. `Cc1ccc(N2C(=O)C(O)=C(C(=O)c3ccc(OC(F)(F)F)cc3)C2c2ccc(Cn3nccn3)cc2)nn1` (stereo not drawn): the melting point worked out at 277 °C. As to `Cc1ccc(N2C(=O)C(O)=C(C(=O)c3ccc(OC(F)(F)F)cc3)C2c2ccc(Cn3cnnn3)cc2)nn1` (stereo not drawn), the melting point was > 300 °C.

As for `Cc1ccc(N2C(=O)C(O)=C(C(=O)c3ccc(OC(F)(F)F)cc3)C2c2ccc(Cn3cncn3)cc2)nn1` (stereo not drawn), the melting point was found to be 224 °C. For the molecule `Cc1ccc(N2C(=O)C(O)=C(C(=O)c3cccc(Cl)c3)C2c2ccc(C(C)C)cc2)nn1` (stereo not drawn), the melting point is 271 °C. `Cc1ccc(N2C(=O)C(O)=C(C(=O)c3ccc(C(C)C)cc3)C2c2ccc(Oc3ccccn3)cc2)nn1` (stereo not drawn) came in with a melting point of 280 °C.

Consider `Cc1ccc(N2C(=O)C(O)=C(C(=O)c3ccc(C(C)C)cc3)C2c2ccc(-c3nnc(C)o3)cc2)nn1` (stereo not drawn), for which the melting point turned out to be 293 °C. In the case of `Cc1ccc(N2C(=O)C(O)=C(C(=O)c3ccccc3C)C2c2ccc(C(C)C)cc2)nn1` (stereo not drawn), the melting point was determined as 221 °C. On to `COc1cccc(C2C(C(=O)c3ccc(C)cc3)=C(O)C(=O)N2c2ccc(C)nn2)c1` (stereo not drawn), for which the melting point is 265 °C. Regarding `COc1ccc(C2C(C(=O)c3ccc(C)cc3)=C(O)C(=O)N2c2ccc(C)nn2)cc1` (stereo not drawn), the melting point amounted to 266 °C. In the case of `COc1ccc(C(=O)C2=C(O)C(=O)N(c3ccc(C)nn3)C2c2ccc(OC)cc2)cc1` (stereo not drawn), the melting point was 259 °C.

Regarding `Cc1ccc(C(=O)C2=C(O)C(=O)N(c3ccc(C)nn3)C2c2cccc(C(F)(F)F)c2)cc1` (stereo not drawn), the melting point turned out to be 232 °C. The same measure, in the same setting: with `COC(=O)c1ccc(N2C(=O)C(O)=C(C(=O)c3ccc(C)cc3)C2c2ccc(C(C)C)cc2)nc1` (stereo not drawn) the figure was 264 to 266 °C.

Molecule `COc1ccccc1C1C(C(=O)c2ccc(C)cc2)=C(O)C(=O)N1c1ccc(C)nn1` (stereo not drawn) displayed a melting point of 211 to 213 °C. Consider `Cc1cccc(C(=O)C2=C(O)C(=O)N(c3ccc(C)nn3)C2c2ccc(C(C)C)cc2)c1` (stereo not drawn), for which the melting point is 245 to 250 °C. In turn, `Cc1ccc(C(=O)C2=C(O)C(=O)N(c3ccc(C(C)C)nn3)C2c2ccc(C(C)C)cc2)cc1` (stereo not drawn) came in with a melting point of 269 to 270 °C.

Take `Cc1ccc(N2C(=O)C(O)=C(C(=O)c3ccc(C(C)C)cc3)C2c2ccc(N3CCN(C)CC3)cc2)nn1` (stereo not drawn): the melting point was in the range of 198 to 203 °C. `Cc1ccc(N2C(=O)C(O)=C(C(=O)c3ccc(C(C)C)cc3)C2c2ccc(OCCN3CCOCC3)cc2)nn1` (stereo not drawn): the melting point turned out to be 256 °C. Still for that read-out and setting: with `Cc1ccc(C(=O)C2=C(O)C(=O)N(c3ccc(C)nn3)C2c2ccc(OC3CCN(C)CC3)cc2)cc1` (stereo not drawn) the figure was 259 to 260 °C.

Take `COc1ccc(C2C(C(=O)c3ccc(N4CCOCC4)cc3)=C(O)C(=O)N2c2ccc(C)nn2)cc1` (stereo not drawn): the melting point worked out at 232 °C. For `Cc1ccc(N2C(=O)C(O)=C(C(=NOCC(=O)O)c3ccc(C(C)C)cc3)C2c2ccc(C(C)C)cc2)nn1` (stereo not drawn), the melting point worked out at 234 °C. Molecule `Cc1ccc(C(=O)C2=C(O)C(=O)N(c3ccc(C)nn3)C2c2ccc(C)cc2C)cc1` (stereo not drawn) yielded a melting point of 254 °C. Same read-out and setting: with `Cc1ccc(C(=O)C2=C(O)C(=O)N(c3ccc(C)nn3)C2c2ccc(OCCN(C)C)cc2)cc1` (stereo not drawn) the figure was 263 to 266 °C. On to `Cc1ccc(C(=O)C2=C(O)C(=O)N(c3ccc(C(F)(F)F)cn3)C2c2ccc(C(C)C)cc2)cc1` (stereo not drawn), for which the melting point lay within 255 to 257 °C. In turn, `Cc1ccc(C(=O)C2=C(O)C(=O)N(c3ccc(C)nn3)C2c2ccc(N3CCN(CCN(C)C)CC3)cc2)cc1` (stereo not drawn) yielded a melting point of 185.3 °C.

On to `COc1ccc(COc2ccc(C(=O)C3=C(O)C(=O)N(c4ccc(C)nn4)C3c3ccc(OC(F)(F)F)cc3)cc2)cc1` (stereo not drawn), for which the melting point fell in the range of 206 to 209 °C.

With `COC1=C(C(=O)c2ccc(C)cc2)C(c2ccc(OC(F)(F)F)cc2)N(c2ccc(C)nn2)C1=O` (stereo not drawn), the melting point lay within 206 to 207 °C.

Molecule `COC1=C(C(=O)c2ccc(C)cc2)C(c2ccc(C(C)C)cc2)N(c2ccc(C)nn2)C1=O` (stereo not drawn) returned a melting point of 248 to 249 °C. Molecule `Cc1ccc(N2C(=O)C(O)=C(C(=O)c3ccc(-c4ccccn4)cc3)C2c2ccc(OC(F)(F)F)cc2)nn1` (stereo not drawn) came in with a melting point of 247 to 249 °C.

`Cc1ccc(N2C(=O)C(O)=C(C(=NOCC(=O)O)c3ccc(C(C)C)cc3)C2c2ccc(OC(F)(F)F)cc2)nn1` (mixture of isomers) [Example 83, [[4-Hydroxy-1-(6-methyl-pyridazin-3-yl)-5-oxo-2-(4-trifluoromethoxy-phenyl)-2,5-dihydro-1H-pyrrol-3-yl]-(4-isopropyl-phenyl)-methyleneaminooxy]-acetic acid] had a melting point of 227 °C. Besides, the EC50 at HCV NS5B genotype 1b (setting [1]) is 8 µM. `COCCON=C(C1=C(O)C(=O)N(c2ccc(C)nn2)C1c1ccc(OC(F)(F)F)cc1)c1ccc(C(C)C)cc1` (mixture of isomers) [Example 84, 3-Hydroxy-4-{(4-isopropyl-phenyl)-[2-methoxy-ethoxyimino]-methyl}-1-(6-methyl-pyridazin-3-yl)-5-(4-trifluoromethoxy-phenyl)-1,5-dihydro-pyrrol-2-one] had a melting point of 115 to 118 °C. In addition, the EC50 at HCV NS5B genotype 1b (setting [1]) was found to be 3 µM.

On to `Cc1ccc(N2C(=O)C(O)=C(C(=O)c3ccc(C(C)C)cc3)[C@@H]2c2ccc(C(F)(F)F)nc2)nn1` [Example 194, 3-hydroxy-4-(4-isopropyl-benzoyl)-1-(6-methyl-pyridazin-3-yl)-5(S)-(6-trifluoromethyl-pyridin-3-yl)-1,5-dihydro-pyrrol-2-one], for which the EC50 at HCV NS5B genotype 1b (setting [2]) is < 10 µM. With `Cc1ccc(N2C(=O)C(O)=C(C(=O)c3ccc(C(C)C)cc3)[C@@H]2c2ccc(C(C)(F)F)cc2)nn1` [Example 197, 5(S)-[4-(1,1-difluoro-ethyl)-phenyl]-3-hydroxy-4-(4-isopropyl-benzoyl)-1-(6-methyl-pyridazin-3-yl)-1,5-dihydro-pyrrol-2-one], the EC50 on HCV NS5B genotype 1b (setting [2]) was < 10 µM.

These data come from US20120128630A1, “1-(6 MEMBERS AZO-HETEROCYCLIC)-PYRROLIN-2-ONE COMPOUNDS AS INHIBITORS OF HEPATITIS C NS5B POLYMERASE, THE PHARAMACEUTICAL COMPOSITION THEREOF AND THEIR THERAPEUTIC USE” (priority 2009, published 2012).
